Assay results reported in PubChem BioAssay (NCI).
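1) Cells in 96-well plates. 2) Compound, 48 h, 5 concentrations. 3) Linear interpolation between surrounding doses. 4) Unreached endpoint = highest concentration. TGI: total growth inhibition.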

Key:
Test in all cases: NCI anticancer screen, dose series, 48 h
RPMI-8226 leukemia = system: RPMI-8226 leukemia
K-562 leukemia = system: K-562 leukemia
COLO 205 colon = system: COLO 205 colon
UACC-62 melanoma = system: UACC-62 melanoma
SNB-75 CNS = system: SNB-75 CNS
SF-539 CNS = system: SF-539 CNS
SK-MEL-2 melanoma = system: SK-MEL-2 melanoma
NCI-H23 lung = system: NCI-H23 lung
OVCAR-8 ovarian = system: OVCAR-8 ovarian
DLD-1 colon = system: DLD-1 colon
KM20L2 colon = system: KM20L2 colon
KM12 colon = system: KM12 colon
SK-MEL-5 melanoma = system: SK-MEL-5 melanoma
HCC-2998 colon = system: HCC-2998 colon
NCI-H226 lung = system: NCI-H226 lung
A549 NSCLC = system: A549 NSCLC
SK-OV-3 ovarian = system: SK-OV-3 ovarian
TK-10 renal = system: TK-10 renal
LOX IMVI melanoma = system: LOX IMVI melanoma
HT29 colon = system: HT29 colon
IGROV1 ovarian = system: IGROV1 ovarian
SW-620 colon = system: SW-620 colon
SNB-78 CNS = system: SNB-78 CNS
M19-MEL melanoma = system: M19-MEL melanoma
HOP-62 NSCLC = system: HOP-62 NSCLC
HOP-92 NSCLC = system: HOP-92 NSCLC
SK-MEL-28 melanoma = system: SK-MEL-28 melanoma
OVCAR-4 ovarian = system: OVCAR-4 ovarian
NCI-H460 lung = system: NCI-H460 lung
CCRF-CEM leukemia = system: CCRF-CEM leukemia
SR leukemia = system: SR leukemia
SF-268 CNS = system: SF-268 CNS
MALME-3M melanoma = system: MALME-3M melanoma
SN12C renal = system: SN12C renal
HL-60(TB) leukemia = system: HL-60(TB) leukemia
SNB-19 CNS = system: SNB-19 CNS
RXF-631 renal = system: RXF-631 renal
MOLT-4 leukemia = system: MOLT-4 leukemia
UO-31 renal = system: UO-31 renal
OVCAR-3 ovarian = system: OVCAR-3 ovarian
A498 renal = system: A498 renal
DMS 114 small cell lung = system: DMS 114 small cell lung
OVCAR-5 ovarian = system: OVCAR-5 ovarian
EKVX NSCLC = system: EKVX NSCLC
LXFL 529 NSCLC = system: LXFL 529 NSCLC
HCT-116 colon = system: HCT-116 colon
M14 melanoma = system: M14 melanoma
UACC-257 melanoma = system: UACC-257 melanoma
DMS 273 small cell lung = system: DMS 273 small cell lung
RXF 393 renal = system: RXF 393 renal
U251 CNS = system: U251 CNS
HCT-15 colon = system: HCT-15 colon
SF-295 CNS = system: SF-295 CNS
ACHN renal = system: ACHN renal

## Nc1nc(Cl)cc(NCCCCO)n1
RPMI-8226 leukemia
  TGI: > 100 µM
K-562 leukemia
  TGI: > 100 µM
COLO 205 colon
  TGI: > 100 µM
UACC-62 melanoma
  TGI: > 100 µM
SNB-75 CNS
  TGI: > 100 µM
SF-539 CNS
  TGI: > 100 µM
SK-MEL-2 melanoma
  TGI: > 100 µM
NCI-H23 lung
  TGI: > 100 µM
OVCAR-8 ovarian
  TGI: > 100 µM
DLD-1 colon
  TGI: > 100 µM
KM20L2 colon
  TGI: > 100 µM
KM12 colon
  TGI: > 100 µM
SK-MEL-5 melanoma
  TGI: > 100 µM
HCC-2998 colon
  TGI: > 100 µM
NCI-H226 lung
  TGI: > 100 µM
A549 NSCLC
  TGI: > 100 µM
SK-OV-3 ovarian
  TGI: > 100 µM
TK-10 renal
  TGI: > 100 µM
LOX IMVI melanoma
  TGI: > 100 µM
HT29 colon
  TGI: > 100 µM
IGROV1 ovarian
  TGI: > 100 µM
SW-620 colon
  TGI: > 100 µM
SNB-78 CNS
  TGI: > 100 µM
M19-MEL melanoma
  TGI: > 100 µM
HOP-62 NSCLC
  TGI: > 10 µM
HOP-92 NSCLC
  TGI: > 100 µM
SK-MEL-28 melanoma
  TGI: > 100 µM
OVCAR-4 ovarian
  TGI: > 100 µM
NCI-H460 lung
  TGI: > 100 µM
CCRF-CEM leukemia
  TGI: > 100 µM
SR leukemia
  TGI: > 100 µM
SF-268 CNS
  TGI: > 100 µM
MALME-3M melanoma
  TGI: > 100 µM
SN12C renal
  TGI: > 100 µM
HL-60(TB) leukemia
  TGI: > 100 µM
SNB-19 CNS
  TGI: > 100 µM
RXF-631 renal
  TGI: > 100 µM
MOLT-4 leukemia
  TGI: > 100 µM
UO-31 renal
  TGI: > 100 µM
OVCAR-3 ovarian
  TGI: > 10 µM
A498 renal
  TGI: > 100 µM
DMS 114 small cell lung
  TGI: > 100 µM
OVCAR-5 ovarian
  TGI: > 100 µM
EKVX NSCLC
  TGI: > 100 µM
LXFL 529 NSCLC
  TGI: > 100 µM
HCT-116 colon
  TGI: > 100 µM
M14 melanoma
  TGI: > 10 µM
UACC-257 melanoma
  TGI: > 100 µM
DMS 273 small cell lung
  TGI: > 100 µM
RXF 393 renal
  TGI: > 100 µM
U251 CNS
  TGI: > 100 µM
HCT-15 colon
  TGI: > 100 µM
SF-295 CNS
  TGI: > 100 µM
ACHN renal
  TGI: > 100 µM
